In article PMC9460261, “Need for a Standardized Translational Drug Development Platform: Lessons Learned from the Repurposing of Drugs for COVID-19” (Microorganisms, 2022):
Like-named read-outs stand apart in the source and are kept apart here.

Legend:
[1] = Population PK model from satellite PK studies in hamster; settings: for CL/F, elimination clearance, population estimate (%RSE) / Q/F (Q1/F), inter-compartment clearance, population estimate (%RSE) / VC/F, central volume of distribution, population estimate (%RSE) / VP/F, peripheral volume of distribution, population estimate (%RSE) / KA, absorption rate constant, population estimate (%RSE): hamster of the study's median weight (80-131 g)
[2] = Plasma protein binding, human; settings: for fraction unbound: human, plasma
[3] = Binding to antiviral assay medium by Rapid Equilibrium Dialysis; settings: for Fraction unbound in assay medium: 2% serum DMEM media, DNDi in-house data; for fraction unbound: bovine
[4] = Plasma protein binding, hamster; settings: for fraction unbound: hamster, plasma
[5] = tested on: SARS-CoV-2 in Calu-3 cells
[6] = tested on: SARS-CoV-2 in Vero cells; settings: for IC50: * one replicate only
[7] = tested on: SARS-CoV-2; settings: cited from earlier work
[8] = tested on: SARS-CoV-2 in Vero cells; assay: microbe, parasite or virus in culture; settings: Severe acute respiratory syndrome coronavirus 2, Vero
[9] = tested on: SARS-CoV-2; format: in vivo, Syrian hamster
[10] = tested on: SARS-CoV-2 in Calu-3 cells; assay: microbe, parasite or virus in culture; settings: Severe acute respiratory syndrome coronavirus 2, Calu-3, read-out: Calu-3 cells Average IC50
[11] = in vitro; settings: African green monkey, Selectivity Index (Vero cells)
[12] = Population PK model in human (digitized literature data)
[13] = female, LGV Golden Syrian, hamster, in vivo
[14] = equilibrium dialysis, DNDi in-house
[15] = antiviral assay medium (DMEM with 2% v/v FCS)
[16] = host cell Calu-3, read-out: SARS-CoV-2 EC50
[17] = host cell Vero, ref 25, read-out: SARS-CoV-2 EC50
[18] = read-out: VERO cells Average IC50, With Pgp pump inhibitor, 2 μM CP-100356, * one replicate only
[19] = read-out: VERO cells Average IC50, Without Pgp pump inhibitor, * one replicate only
[20] = doses, frequency, duration as in Table 1
[21] = read-out: VERO cells Average IC50, With Pgp pump inhibitor, 2 μM CP-100356
[22] = read-out: VERO cells Average IC50, Without Pgp pump inhibitor
[23] = human, modelled from digitized data, ref 68 (ambroxol), 71-73 (cepharanthine), 78 (fluvoxamine), 80 (molnupiravir)

With `C[C@@]1(F)[C@H](O)[C@@H](CO)O[C@H]1n1cnc2c(=O)[nH]c(N)nc21` [AT-273] the “KTR, population estimate (%RSE)” value ([1]; hamster 119 g) was 12.3 (50.5) h-1, the “CL/F, elimination clearance, population estimate (%RSE)” value (shortened to “CL/F, elimination clearance … (%RSE)”) [1] was 5.77 (33.1) mL/h and the “Q/F (Q1/F), inter-compartment clearance, population estimate (%RSE)” value [1] was 6730 (12.2) mL/h. For the same molecule, the “VC/F, central volume of distribution, population estimate (%RSE)” value (“VC/F, central volume … (%RSE)” below) [1] was 49200 (13.2) mL, the “VP/F, peripheral volume of distribution, population estimate (%RSE)” value (shortened to “VP/F, peripheral volume … (%RSE)”) [1] was 84800 (27.3) mL and the “Fraction unbound in plasma, human” value [2, 14] was 57.8%. For the same molecule, the “Fraction unbound in assay medium” value [3] was 99.1% and the “Fraction unbound in plasma, hamster” value [4, 14] was 95.5%.
For `CCN(CC)Cc1cc(Nc2ccnc3cc(Cl)ccc23)ccc1O` [Amodiaquine, amodiaquine], the “Activity In Vitro; Potency EC50 or IC50 < 10 µM; Calu-3 Cells” value (“Activity In Vitro … Calu-3 Cells” below) [5] was “No (Potency EC50 or IC50 < 10 µM)”, the “Route effect (SC) on CL/F” value ([1]; covariate, hamster model) was -85.3 (1.81%) and the “Route effect (SC) on KA” value ([1]; covariate, hamster model) was -20.4 (19.8%). The “CL/F, elimination clearance … (%RSE)” value [1] was 4390 (7.44%) mL/h, the “KA, absorption rate constant, population estimate (%RSE)” value (“KA, absorption rate constant … (%RSE)” below) [1] was 0.0784 (6.52%) h-1 and the “VC/F, central volume … (%RSE)” value [1] was 158 (15.3%) mL. For the same molecule, the fraction unbound [2] was 0.067, the “Activity In Vitro; Potency EC50 or IC50 < 10 µM; Vero Cells” value (shortened to “Activity In Vitro … Vero Cells”) [6] was “Yes (Potency EC50 or IC50 < 10 µM)” and the fraction unbound [3, 15] was 0.878. The EC50 [7, 16] was over 50 µM, the EC50 ([7]; host cell Huh7.5, read-out: SARS-CoV-2 EC50) was 0.6 µM and the EC50 ([7]; host cell Vero CCL81, read-out: SARS-CoV-2 EC50) was 1.6 µM. For the same molecule, the EC50 ([7]; host cell Vero E6, ref 29, read-out: SARS-CoV-2 EC50) was 10 µM, the EC50 ([7]; host cell Vero E6, ref 30, read-out: SARS-CoV-2 EC50) was 4.9 µM and the EC50 [7, 17] was 5.2 µM. For the same molecule, the IC50 ([8]; read-out: EC50 or IC50, Vero Cells) was about 10 µM, the IC50 [8, 18] was 2.6 µM and the IC50 [8, 19] was 8.8 µM. For the same molecule, the fraction unbound [4] was 0.096, the “Activity in SARS-CoV-2 Hamster Model” value [9, 20] was “No (parent)” and the IC50 [10] was over 50 µM. The selectivity ratio ([11]; With Pgp pump inhibitor) was over 19 and the selectivity ratio ([11]; Without Pgp pump inhibitor) was over 5.7.
For `COC(=O)N[C@H](C(=O)N[C@@H](Cc1ccccc1)[C@@H](O)CN(Cc1ccc(-c2ccccn2)cc1)NC(=O)[C@@H](NC(=O)OC)C(C)(C)C)C(C)(C)C` [Atazanavir, atazanavir], the fraction unbound [3, 15] is listed as 0.348, the EC50 ([7]; atazanavir and ATZ/ritonavir combination, read-out: EC50 in infected A549 lung epithelia cells) is listed as 0.6 µM and the EC50 ([7]; host cell A549, read-out: SARS-CoV-2 EC50) is listed as 0.2 µM. For the same molecule, the EC50 ([7]; host cell Vero E6, ref 23, read-out: SARS-CoV-2 EC50) was 2 µM, the EC50 ([7]; host cell Vero E6, ref 24, read-out: SARS-CoV-2 EC50) was 9.36 µM and the EC50 [7, 17] was over 50 µM. For the same molecule, the IC50 [8, 18] was over 50 µM, the IC50 [8, 19] was 45.5 µM and the fraction unbound [4] was 0.2. For the same molecule, the “Activity in SARS-CoV-2 Hamster Model” value [9, 20] was “no activity”, the IC50 [10] was 21 µM and the selectivity ratio ([11]; Without Pgp pump inhibitor) was over 2.2.
In the case of `O=c1nc(NO)ccn1[C@@H]1O[C@H](CO)[C@@H](O)[C@H]1O` [EIDD-1931], the IC50 ([5]; read-out: Calu-3 cells Average IC50, * one replicate only) is reported as 3.6 µM, the “Selectivity Index (Vero cells), With Pgp pump inhibitor” value ([6]; T: toxicity observed) is reported as over 37 and the “Selectivity Index (Vero cells), Without Pgp pump inhibitor” value ([6]; T: toxicity observed) is reported as over 32. For the same molecule, the IC50 [6, 21] was 1.3 µM, the IC50 [6, 22] was 1.5 µM and the “Fraction unbound in assay medium” value [3] was 99.7%.
For `CNCCC(Oc1ccc(C(F)(F)F)cc1)c1ccccc1` (stereo not drawn) [Fluoxetine, fluoxetine], the “Activity In Vitro … Calu-3 Cells” value [5] was “No (key: Yes: Potency EC50 or IC50 < 10 µM; No: Potency EC50 or IC50 < 10 µM)”, the “Dose effect on FFP (power)” value ([1]; covariate, hamster model) was -0.0175 (13.7) and the “CL/F, elimination clearance … (%RSE)” value [1] was 447 (7.0) mL/h. For the same molecule, the “KA, absorption rate constant … (%RSE)” value [1] was 5.34 (11.7) h-1, the “VC/F, central volume … (%RSE)” value [1] was 3530 (6.5) mL and the fraction unbound [2] was 0.048. For the same molecule, the “Activity In Vitro … Vero Cells” value [6] was “Yes ^T (key: Yes: Potency EC50 or IC50 < 10 µM; No: Potency EC50 or IC50 < 10 µM)”, the “Toxicity observed (^T), Vero Cells” value [6] was “Yes ^T” and the fraction unbound [3, 15] was 0.682. For the same molecule, the IC50 ([8]; read-out: VERO cells Average IC50, With Pgp pump inhibitor) was 5.6 µM, the IC50 [8, 22] was 7.7 µM and the fraction unbound [4] was 0.051. For the same molecule, the “Activity in SARS-CoV-2 Hamster Model” value ([9]; hamster, in vivo) was “No”.
In the case of `CC(C)C(=O)OC[C@H]1O[C@@H](n2ccc(NO)nc2=O)[C@H](O)[C@@H]1O` [Molnupiravir, molnupiravir], the “Activity In Vitro … Calu-3 Cells” value [5] is reported as “Yes (Potency EC50 or IC50 < 10 µM)”, the “Dose effect on MTT (power)” value ([12]; covariate, human model) is reported as 0.127 (10.8%) and the “CL/F, population estimate (%RSE)” value [12, 23] is reported as 80.9 (3.9%) L/h. For the same molecule, the “VC/F, population estimate (%RSE)” value [12, 23] was 128 (5.7%) L, the “MTT, population estimate (%RSE)” value ([12]; human, modelled from digitized data, ref 68 (ambroxol), 78 (fluvoxamine), 80 (molnupiravir)) was 1.0 (3.3%) h and the “Activity In Vitro … Vero Cells” value ([6]; in the presence of a P-glycoprotein inhibitor (^Pgp)) was “Yes ^Pgp (Potency EC50 or IC50 < 10 µM)”. For the same molecule, the IC50 [6, 21] was 2.6 µM, the IC50 ([6]; read-out: VERO cells Average IC50, With Pgp pump inhibitor, 2 μM CP-100356, listed as molnupiravir) was under 10 µM and the EC50 [7, 16] was 0.1 µM. For the same molecule, the IC50 [8, 19] was 26 µM, the “CL/F, elimination clearance … (%RSE)” value [13] was 1340 (7.6) mL/h and the “Dose effect on KA (exp)” value [13] was -0.00247 (23.7). The “KA, absorption rate constant … (%RSE)” value [13] was 1.45 (7.5) h-1, the “Q/F (Q1/F), inter-compartment clearance, population estimate (%RSE)” value [13] was 15.8 (23.1) mL/h and the “VC/F, central volume … (%RSE)” value [13] was 172 (21.6) mL. The “VP/F, peripheral volume … (%RSE)” value [13] was 75.3 (23.0) mL, the “Activity in SARS-CoV-2 Hamster Model” value [9, 20] was “Yes” and the “Activity in SARS-CoV-2 Hamster Model” value ([9]; doses, frequency, duration as in Table 1, listed as molnupiravir) was “demonstrated in vivo efficacy”. It also gave an IC50 [10] of 27.8 µM, a selectivity ratio ([11]; With Pgp pump inhibitor, T: toxicity observed) of over 19.4 and a selectivity ratio ([11]; Without Pgp pump inhibitor, T: toxicity observed) of over 1.9.
With `CC(C)OC(=O)[C@H](C)N[P@](=O)(OC[C@H]1O[C@@H](n2ccc(=O)[nH]c2=O)[C@](C)(F)[C@@H]1O)Oc1ccccc1` [Sofosbuvir, sofosbuvir] the “Activity In Vitro … Calu-3 Cells” value [5] was “No (Potency EC50 or IC50 < 10 µM)”, the “CL/F, elimination clearance … (%RSE)” value [1] was 122000 (14.4) mL/h and the “KA, absorption rate constant … (%RSE)” value [1] was 0.622 (15.9) h-1. The “Q/F (Q1/F), inter-compartment clearance, population estimate (%RSE)” value [1] was 139000 (17.2) mL/h, the “VC/F, central volume … (%RSE)” value [1] was 46600 (29.9) mL and the “VP/F, peripheral volume … (%RSE)” value [1] was 1490000 (27.9) mL. For the same molecule, the “Activity In Vitro … Vero Cells” value [6] was “No (Potency EC50 or IC50 < 10 µM)”, the fraction unbound [3] was 0.716 and the EC50 [7, 16] was 7.3 µM. The EC50 ([7]; host cell HuH-7, read-out: SARS-CoV-2 EC50) was 5.1 µM, the EC50 ([7]; host cell Vero, ref 26, read-out: SARS-CoV-2 EC50) was over 10 µM and the IC50 [8, 18] was over 50 µM. The IC50 [8, 19] was over 50 µM, the “Activity in SARS-CoV-2 Hamster Model” value [9, 20] was “No” and the “Activity in SARS-CoV-2 Hamster Model” value ([9]; doses, frequency, duration as in Table 1, listed as sofosbuvir) was “no activity”. For the same molecule, the IC50 [10] was over 50 µM.
